In assay [1] the target is T1, Serine/threonine-protein kinase D3 (Homo sapiens) (UniProt O94806).
T1 sequence (whole entry): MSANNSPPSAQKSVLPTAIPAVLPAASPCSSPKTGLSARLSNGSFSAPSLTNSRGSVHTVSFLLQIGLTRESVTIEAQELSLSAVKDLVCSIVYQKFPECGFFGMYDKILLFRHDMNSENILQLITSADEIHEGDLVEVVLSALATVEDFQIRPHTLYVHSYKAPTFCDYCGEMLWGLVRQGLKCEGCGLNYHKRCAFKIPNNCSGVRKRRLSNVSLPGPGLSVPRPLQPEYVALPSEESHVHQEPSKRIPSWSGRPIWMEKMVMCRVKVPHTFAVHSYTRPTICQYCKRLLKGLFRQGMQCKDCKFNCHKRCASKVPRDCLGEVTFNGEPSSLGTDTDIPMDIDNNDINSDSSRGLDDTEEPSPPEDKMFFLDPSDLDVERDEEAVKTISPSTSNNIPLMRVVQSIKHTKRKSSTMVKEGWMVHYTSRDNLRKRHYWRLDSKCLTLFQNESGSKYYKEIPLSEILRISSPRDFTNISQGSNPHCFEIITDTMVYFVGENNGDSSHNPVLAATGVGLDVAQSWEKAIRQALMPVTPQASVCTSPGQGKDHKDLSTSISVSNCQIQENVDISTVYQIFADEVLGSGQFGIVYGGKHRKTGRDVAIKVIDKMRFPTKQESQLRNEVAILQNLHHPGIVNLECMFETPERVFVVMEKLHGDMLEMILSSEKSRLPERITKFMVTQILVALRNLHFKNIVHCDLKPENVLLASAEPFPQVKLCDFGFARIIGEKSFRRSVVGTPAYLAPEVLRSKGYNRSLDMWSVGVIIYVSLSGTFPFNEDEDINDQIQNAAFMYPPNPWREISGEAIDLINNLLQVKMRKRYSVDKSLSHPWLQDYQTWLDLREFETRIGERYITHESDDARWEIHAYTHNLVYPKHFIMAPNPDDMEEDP
The assay can be described thus: Inhibition of PRKD3 (unknown origin) assessed as remaining activity at 1 uM by Kinome scan method relative to control.

In assay [2] the target is T2, Serine/threonine-protein kinase D1 (Homo sapiens) (UniProt Q15139).
T2 sequence (whole entry): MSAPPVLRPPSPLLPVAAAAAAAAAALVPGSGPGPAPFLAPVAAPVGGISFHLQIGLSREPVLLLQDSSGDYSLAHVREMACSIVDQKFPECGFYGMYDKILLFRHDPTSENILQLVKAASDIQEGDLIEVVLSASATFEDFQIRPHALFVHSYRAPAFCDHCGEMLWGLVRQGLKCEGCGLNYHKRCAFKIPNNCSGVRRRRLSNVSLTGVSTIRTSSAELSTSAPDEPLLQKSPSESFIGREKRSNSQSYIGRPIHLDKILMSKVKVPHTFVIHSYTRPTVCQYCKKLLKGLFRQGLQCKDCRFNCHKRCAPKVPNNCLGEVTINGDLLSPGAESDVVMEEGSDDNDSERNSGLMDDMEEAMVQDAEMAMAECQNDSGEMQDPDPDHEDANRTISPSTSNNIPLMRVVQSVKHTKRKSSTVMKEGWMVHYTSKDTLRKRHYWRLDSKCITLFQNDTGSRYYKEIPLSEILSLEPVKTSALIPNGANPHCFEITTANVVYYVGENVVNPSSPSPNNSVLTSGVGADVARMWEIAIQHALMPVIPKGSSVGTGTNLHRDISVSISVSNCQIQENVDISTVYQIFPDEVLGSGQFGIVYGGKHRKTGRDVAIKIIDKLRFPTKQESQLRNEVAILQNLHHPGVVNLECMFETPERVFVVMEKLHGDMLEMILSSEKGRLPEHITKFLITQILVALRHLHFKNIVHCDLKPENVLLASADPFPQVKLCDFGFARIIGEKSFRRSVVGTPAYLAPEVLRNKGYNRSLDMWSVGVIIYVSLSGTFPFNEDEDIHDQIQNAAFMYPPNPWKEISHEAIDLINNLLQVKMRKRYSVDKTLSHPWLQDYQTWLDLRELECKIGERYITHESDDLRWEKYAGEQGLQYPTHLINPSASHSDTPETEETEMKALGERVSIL
In words: Inhibition of PRKD1 (unknown origin) assessed as remaining activity at 1 uM by Kinome scan method relative to control.

The target of assay [3] is Casein kinase II subunit alpha (Homo sapiens) (UniProt P68400). The assay can be described thus: Inhibition of CSNK2A1 (unknown origin) assessed as remaining activity at 1 uM by Kinome scan method relative to control.
Assay [4] addresses Aurora kinase B (Homo sapiens) (UniProt Q96GD4). The assay can be described thus: Inhibition of AURKB (unknown origin) assessed as remaining activity at 1 uM by Kinome scan method relative to control.
The target of assay [5] is Epithelial discoidin domain-containing receptor 1 (Homo sapiens) (UniProt Q08345). The assay can be described thus: Inhibition of DDR1 (unknown origin) assessed as remaining activity at 1 uM by Kinome scan method relative to control.
The target in assay [6] is Dual specificity testis-specific protein kinase 1 (Homo sapiens) (UniProt Q15569). In words: Inhibition of TESK1 (unknown origin) assessed as remaining activity at 1 uM by Kinome scan method relative to control.
The target of assay [7] is Mitogen-activated protein kinase kinase kinase 10 (Homo sapiens) (UniProt Q02779). The assay can be described thus: Inhibition of MLK2 (unknown origin) assessed as remaining activity at 1 uM by Kinome scan method relative to control.
Assay [8] relates to Tyrosine-protein kinase ABL1 (Homo sapiens), P00519 [T315I]. In words: Inhibition of ABL1 T315I mutant (unknown origin) assessed as remaining activity at 1 uM by Kinome scan method relative to control.
Assay [9] deals with LIM domain kinase 1 (Homo sapiens) (UniProt P53667). In words: Inhibition of LIMK1 (unknown origin) assessed as remaining activity at 1 uM by Kinome scan method relative to control.
Assay [10] deals with Dual specificity mitogen-activated protein kinase kinase 4 (Homo sapiens) (UniProt P45985). In words: Inhibition of MEK4 (unknown origin) assessed as remaining activity at 1 uM by Kinome scan method relative to control.
The target of assay [11] is Ribosomal protein S6 kinase alpha-4 (Homo sapiens) (UniProt O75676). The assay can be described thus: Inhibition of N-terminal kinase domain RPS6KA4 (unknown origin) assessed as remaining activity at 1 uM by Kinome scan method relative to control.
Assay [12] has as its target Mitogen-activated protein kinase 4 (Homo sapiens) (UniProt P31152). The assay can be described thus: Inhibition of ERK4 (unknown origin) assessed as remaining activity at 1 uM by Kinome scan method relative to control.
Assay [13] deals with Hormonally up-regulated neu tumor-associated kinase (Homo sapiens) (UniProt P57058). The assay can be described thus: Inhibition of HUNK (unknown origin) assessed as remaining activity at 1 uM by Kinome scan method relative to control.
The target in assay [14] is Mitogen-activated protein kinase kinase kinase 4 (Homo sapiens) (UniProt Q9Y6R4). In words: Inhibition of MAP3K4 (unknown origin) assessed as remaining activity at 1 uM by Kinome scan method relative to control.
The test system of assay [15] is Phosphatidylinositol 4,5-bisphosphate 3-kinase catalytic subunit alpha isoform (Homo sapiens), P42336 [H1047L]. The assay can be described thus: Inhibition of PIK3CA H1047L mutant (unknown origin) assessed as remaining activity at 1 uM by Kinome scan method relative to control.

Activity data for two compounds are collected here from ChEMBL document CHEMBL5696441 (Nat Chem Biol, 2011).

Chain of Mitogen-activated protein kinase 4 (Homo sapiens) (P31152 whole entry): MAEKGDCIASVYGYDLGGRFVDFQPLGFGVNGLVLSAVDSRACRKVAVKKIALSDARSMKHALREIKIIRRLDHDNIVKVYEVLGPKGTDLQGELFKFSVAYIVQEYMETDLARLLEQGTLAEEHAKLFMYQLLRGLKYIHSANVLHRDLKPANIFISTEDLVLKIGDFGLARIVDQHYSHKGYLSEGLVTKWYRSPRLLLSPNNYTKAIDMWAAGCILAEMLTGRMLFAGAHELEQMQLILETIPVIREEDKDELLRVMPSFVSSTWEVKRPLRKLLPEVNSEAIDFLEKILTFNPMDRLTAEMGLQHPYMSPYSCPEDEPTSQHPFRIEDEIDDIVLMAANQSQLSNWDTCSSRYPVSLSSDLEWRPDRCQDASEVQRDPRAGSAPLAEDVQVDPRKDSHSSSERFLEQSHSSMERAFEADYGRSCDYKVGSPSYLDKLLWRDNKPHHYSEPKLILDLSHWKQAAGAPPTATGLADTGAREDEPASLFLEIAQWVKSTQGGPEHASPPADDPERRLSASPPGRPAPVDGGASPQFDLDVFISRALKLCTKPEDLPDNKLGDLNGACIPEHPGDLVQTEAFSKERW
Chain of Hormonally up-regulated neu tumor-associated kinase (Homo sapiens) (P57058 whole entry): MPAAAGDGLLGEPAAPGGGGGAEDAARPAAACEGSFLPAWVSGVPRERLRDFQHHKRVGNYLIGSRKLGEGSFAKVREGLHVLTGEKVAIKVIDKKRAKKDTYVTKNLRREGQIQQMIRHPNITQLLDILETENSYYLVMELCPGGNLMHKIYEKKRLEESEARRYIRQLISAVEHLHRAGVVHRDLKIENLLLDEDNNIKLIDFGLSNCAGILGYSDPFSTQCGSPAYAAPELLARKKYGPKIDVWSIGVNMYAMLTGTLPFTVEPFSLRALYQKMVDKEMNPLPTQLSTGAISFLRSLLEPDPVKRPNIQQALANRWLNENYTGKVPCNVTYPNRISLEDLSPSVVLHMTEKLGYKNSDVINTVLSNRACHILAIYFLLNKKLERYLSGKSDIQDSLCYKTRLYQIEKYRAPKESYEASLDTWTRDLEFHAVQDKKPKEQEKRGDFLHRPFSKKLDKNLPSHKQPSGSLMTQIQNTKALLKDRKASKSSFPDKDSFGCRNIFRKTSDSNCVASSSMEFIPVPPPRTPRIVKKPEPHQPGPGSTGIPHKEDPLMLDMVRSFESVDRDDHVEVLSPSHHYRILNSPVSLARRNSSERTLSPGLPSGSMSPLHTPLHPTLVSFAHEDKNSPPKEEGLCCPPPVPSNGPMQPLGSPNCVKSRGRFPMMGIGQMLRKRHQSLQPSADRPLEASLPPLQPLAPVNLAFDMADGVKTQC
Chain of Ribosomal protein S6 kinase alpha-4 (Homo sapiens) (O75676 whole entry, looked up, the tested form may be a part): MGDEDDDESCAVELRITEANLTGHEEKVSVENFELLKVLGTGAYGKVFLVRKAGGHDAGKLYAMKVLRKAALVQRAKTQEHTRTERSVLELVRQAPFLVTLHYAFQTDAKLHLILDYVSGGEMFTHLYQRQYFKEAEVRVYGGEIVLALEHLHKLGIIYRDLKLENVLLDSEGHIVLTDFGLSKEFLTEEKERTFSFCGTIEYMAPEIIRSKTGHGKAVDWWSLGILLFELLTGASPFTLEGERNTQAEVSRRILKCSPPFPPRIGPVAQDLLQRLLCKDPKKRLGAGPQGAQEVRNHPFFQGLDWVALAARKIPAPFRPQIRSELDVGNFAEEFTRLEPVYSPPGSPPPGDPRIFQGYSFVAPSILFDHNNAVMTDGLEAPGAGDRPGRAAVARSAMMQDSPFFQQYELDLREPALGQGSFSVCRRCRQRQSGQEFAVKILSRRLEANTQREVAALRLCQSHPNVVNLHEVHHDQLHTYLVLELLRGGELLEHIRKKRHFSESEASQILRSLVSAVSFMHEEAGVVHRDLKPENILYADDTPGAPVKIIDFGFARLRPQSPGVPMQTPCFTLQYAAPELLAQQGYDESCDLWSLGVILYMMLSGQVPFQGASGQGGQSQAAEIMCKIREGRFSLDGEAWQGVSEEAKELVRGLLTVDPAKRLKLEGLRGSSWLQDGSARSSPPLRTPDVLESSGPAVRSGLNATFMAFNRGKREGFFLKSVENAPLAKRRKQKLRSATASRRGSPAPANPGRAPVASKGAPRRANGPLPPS
Chain of Mitogen-activated protein kinase kinase kinase 10 (Homo sapiens) (Q02779 whole entry, looked up): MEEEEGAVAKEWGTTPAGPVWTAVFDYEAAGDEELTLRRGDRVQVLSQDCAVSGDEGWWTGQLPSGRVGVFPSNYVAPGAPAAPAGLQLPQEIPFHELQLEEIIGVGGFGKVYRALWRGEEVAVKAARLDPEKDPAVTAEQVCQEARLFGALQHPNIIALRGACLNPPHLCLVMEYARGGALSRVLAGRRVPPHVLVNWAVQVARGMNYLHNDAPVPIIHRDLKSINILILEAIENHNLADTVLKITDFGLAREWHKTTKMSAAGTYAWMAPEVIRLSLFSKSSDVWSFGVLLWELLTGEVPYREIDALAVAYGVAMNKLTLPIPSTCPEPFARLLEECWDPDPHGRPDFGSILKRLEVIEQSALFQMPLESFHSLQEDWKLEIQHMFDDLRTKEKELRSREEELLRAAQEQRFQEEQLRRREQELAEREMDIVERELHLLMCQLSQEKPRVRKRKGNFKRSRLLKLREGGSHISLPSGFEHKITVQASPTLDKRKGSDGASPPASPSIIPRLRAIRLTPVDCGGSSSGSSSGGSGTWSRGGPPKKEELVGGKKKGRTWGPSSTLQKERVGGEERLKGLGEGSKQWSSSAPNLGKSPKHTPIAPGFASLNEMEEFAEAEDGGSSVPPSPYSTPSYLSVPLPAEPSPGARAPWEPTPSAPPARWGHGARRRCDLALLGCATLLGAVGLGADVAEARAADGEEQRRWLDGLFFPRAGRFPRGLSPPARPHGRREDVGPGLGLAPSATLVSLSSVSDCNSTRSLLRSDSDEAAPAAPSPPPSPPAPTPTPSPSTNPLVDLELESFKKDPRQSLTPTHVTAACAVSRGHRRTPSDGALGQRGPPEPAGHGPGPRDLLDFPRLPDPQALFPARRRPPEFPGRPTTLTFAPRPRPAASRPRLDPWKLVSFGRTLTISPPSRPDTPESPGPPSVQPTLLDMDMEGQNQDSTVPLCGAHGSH
Chain of Phosphatidylinositol 4,5-bisphosphate 3-kinase catalytic subunit alpha isoform (Homo sapiens), P42336 [H1047L] (P42336 whole entry H1047L, canonical isoform): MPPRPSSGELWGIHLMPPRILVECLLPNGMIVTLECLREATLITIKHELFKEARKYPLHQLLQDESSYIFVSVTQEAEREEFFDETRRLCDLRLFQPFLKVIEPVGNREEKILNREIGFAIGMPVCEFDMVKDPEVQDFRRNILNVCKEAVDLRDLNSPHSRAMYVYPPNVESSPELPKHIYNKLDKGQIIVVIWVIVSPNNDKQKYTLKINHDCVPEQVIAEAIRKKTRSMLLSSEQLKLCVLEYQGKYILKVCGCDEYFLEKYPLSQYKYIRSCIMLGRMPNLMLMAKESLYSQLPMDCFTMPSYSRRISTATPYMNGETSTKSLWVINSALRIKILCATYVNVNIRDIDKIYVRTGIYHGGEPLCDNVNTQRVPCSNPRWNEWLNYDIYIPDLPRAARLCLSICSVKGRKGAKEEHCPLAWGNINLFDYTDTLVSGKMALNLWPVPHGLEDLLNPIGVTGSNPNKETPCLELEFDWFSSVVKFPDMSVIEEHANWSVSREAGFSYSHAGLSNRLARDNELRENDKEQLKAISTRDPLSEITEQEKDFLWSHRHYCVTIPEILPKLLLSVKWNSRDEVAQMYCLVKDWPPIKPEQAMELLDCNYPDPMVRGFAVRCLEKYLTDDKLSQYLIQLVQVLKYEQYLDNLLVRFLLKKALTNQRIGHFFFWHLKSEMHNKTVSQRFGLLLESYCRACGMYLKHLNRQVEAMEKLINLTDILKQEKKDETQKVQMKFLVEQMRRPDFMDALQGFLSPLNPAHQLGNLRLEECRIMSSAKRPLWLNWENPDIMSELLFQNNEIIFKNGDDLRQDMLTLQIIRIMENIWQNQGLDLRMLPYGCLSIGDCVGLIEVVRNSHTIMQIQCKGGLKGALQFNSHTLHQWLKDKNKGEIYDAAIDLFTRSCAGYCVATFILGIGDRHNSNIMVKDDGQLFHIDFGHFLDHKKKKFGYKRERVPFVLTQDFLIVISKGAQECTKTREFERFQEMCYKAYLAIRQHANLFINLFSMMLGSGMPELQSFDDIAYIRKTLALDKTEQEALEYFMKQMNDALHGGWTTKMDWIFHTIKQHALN
Chain of Casein kinase II subunit alpha (Homo sapiens) (P68400 whole entry, looked up): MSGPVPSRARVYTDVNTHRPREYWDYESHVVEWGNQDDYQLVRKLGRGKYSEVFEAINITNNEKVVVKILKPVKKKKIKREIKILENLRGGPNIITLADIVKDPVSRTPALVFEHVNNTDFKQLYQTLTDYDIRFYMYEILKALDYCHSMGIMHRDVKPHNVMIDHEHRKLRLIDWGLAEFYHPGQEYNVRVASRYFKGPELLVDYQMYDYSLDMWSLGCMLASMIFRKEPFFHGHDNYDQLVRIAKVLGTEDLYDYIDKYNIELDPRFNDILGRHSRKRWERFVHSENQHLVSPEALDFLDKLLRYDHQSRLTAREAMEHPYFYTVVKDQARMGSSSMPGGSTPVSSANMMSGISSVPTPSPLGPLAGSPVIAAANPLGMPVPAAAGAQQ
Chain of Aurora kinase B (Homo sapiens) (Q96GD4 whole entry, the tested form may be a part): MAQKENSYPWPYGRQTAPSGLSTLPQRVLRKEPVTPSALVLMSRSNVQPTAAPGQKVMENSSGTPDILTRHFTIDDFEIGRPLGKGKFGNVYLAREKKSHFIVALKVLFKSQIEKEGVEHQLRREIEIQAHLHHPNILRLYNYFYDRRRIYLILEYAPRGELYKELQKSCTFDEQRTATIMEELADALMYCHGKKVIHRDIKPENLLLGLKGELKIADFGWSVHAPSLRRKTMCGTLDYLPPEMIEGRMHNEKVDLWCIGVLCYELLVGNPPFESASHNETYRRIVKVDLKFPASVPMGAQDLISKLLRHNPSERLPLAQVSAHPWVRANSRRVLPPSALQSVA

With `Nc1ccccc1Nc1ccc2c(c1)CCc1ccccc1C2=O`, the Activity stood at 77% in [1]; 91% in assay [2]; 86% in assay [3]; 97% in [4]; 80% in assay [5]; 90% in [6]. Besides, the Activity in [7] was determined as 92%; in [8] it was 83%; in assay [9], 96%; in [10], 64%; in assay [11] it was 94%; in assay [12], 97%. Further, the Activity came out at 91% in assay [13], 82% in assay [14] and 84% in [15].
Regarding `O=C1c2ccc(Nc3ccc(F)cc3F)cc2CCc2ccc(OC[C@H](O)CO)cc21` [Skepinone-L], the Activity in assay [1] was determined as 91%; in assay [2] it was 100%; in [3], 96%; in assay [4], 96%; in assay [5], 85%; in assay [6] it was 100%. The Activity in [7] is 85%; in [8], 94%; in assay [9], 86%; in assay [10], 78%; in assay [11] it was 82%; in assay [12] it was 100%. For the same compound, the Activity was 96% in assay [13], 85% in [14] and 95% in assay [15].
